Source: patent US6737383B1, “Herbicidal oxadiazolidines” (priority 1999, dated 2004)

Columns and labels:
cocklebur = experiment: Test B pre/postemergence cocklebur; assay type: in vivo, Xanthium strumarium
In short: (§1)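 Test chemicals in a non-phytotoxic solvent mixture with surfactant were sprayed preemergence onto planted seeds and postemergence onto plants 2 to 18 cm tall (1- to 4-leaf stage). After twelve to sixteen days in a greenhouse, injury was visually rated against untreated controls from 0 (no effect) to 10 (complete control).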

morningglory = experiment: Test B pre/postemergence morningglory; assay type: in vivo, Ipomoea hederacea
In short: as §1

sugar beet = experiment: Test B pre/postemergence sugar beet; assay type: in vivo, Beta vulgaris
In short: as §1

giant foxtail = experiment: Test B pre/postemergence giant foxtail; assay type: in vivo, Setaria faberii
In short: as §1

blackgrass = experiment: Test B pre/postemergence blackgrass; assay type: in vivo, Alopecurus myosuroides
In short: as §1

purple nutsedge = experiment: Test B pre/postemergence purple nutsedge; assay type: in vivo, Cyperus rotundus
In short: as §1

corn = experiment: Test B pre/postemergence corn; assay type: in vivo, Zea mays
In short: as §1

soybean = experiment: Test B pre/postemergence soybean; assay type: in vivo, Glycine max
In short: as §1

surinam grass = experiment: Test B pre/postemergence surinam grass; assay type: in vivo, Brachiaria decumbens
In short: as §1

crabgrass = experiment: Test B pre/postemergence crabgrass; assay type: in vivo, Digitaria sanguinalis
In short: as §1

velvetleaf = experiment: Test B pre/postemergence velvetleaf; assay type: in vivo, Abutilon theophrasti
In short: as §1

wheat = experiment: Test B pre/postemergence wheat; assay type: in vivo, Triticum aestivum
In short: as §1

wild oat = experiment: Test B pre/postemergence wild oat; assay type: in vivo, Avena fatua
In short: as §1

pigweed = experiment: Test B pre/postemergence pigweed; assay type: in vivo, Amaranthus retroflexus
In short: as §1

rape = experiment: Test B pre/postemergence rape; assay type: in vivo, Brassica napus
In short: as §1

bedstraw = experiment: Test B pre/postemergence bedstraw; assay type: in vivo, Galium aparine
In short: as §1

[1] = Postemergence, Rate 62 g/ha, scale of 0 to 10, 0 is no effect, 10 is complete control
[2] = Postemergence, Rate 125 g/ha, scale 0 to 10, 0 is no effect, 10 is complete control
[3] = Postemergence, Rate 500 g/ha, scale of 0 to 10 where 0 is no effect and 10 is complete control
[4] = Preemergence, Rate 62 g/ha, scale 0 to 10 (0 no effect, 10 complete control)
[5] = Preemergence, Rate 125 g/ha, scale 0 to 10, 0 is no effect, 10 is complete control
[6] = Preemergence, Rate 500 g/ha, scale of 0 to 10 where 0 is no effect and 10 is complete control
[7] = Rate 250 g/ha, Postemergence, scale of 0 to 10 where 0 is no effect and 10 is complete control

CC(=O)OCCCCn1c(=O)on(C(=O)N(c2ccccc2)C(C)C)c1=O [Compound 565]
Cocklebur plant response rating (cocklebur; [1]): 0 | Cocklebur plant response rating (cocklebur; [2]): 0 | Plant response rating, Cocklebur (cocklebur; [3]): 2 | Cocklebur plant response rating (cocklebur; [4]): 0 | Cocklebur plant response rating (cocklebur; [5]): 0 | Cocklebur plant response rating (0 to 10 scale) (cocklebur; Preemergence, Rate 250 g/ha): 0 | Cocklebur plant response rating (cocklebur; [6]): 0 | Plant response rating, Cocklebur (cocklebur; [7]): 2 | Morningglory plant response rating (morningglory; [1]): 3 | Morningglory plant response rating (morningglory; [2]): 5 | Plant response rating, Morningglory (morningglory; [3]): 9 | Morningglory plant response rating (morningglory; [4]): 0 | Morningglory plant response rating (morningglory; [5]): 0 | Morningglory plant response rating (0 to 10 scale) (morningglory; Preemergence, Rate 250 g/ha): 0 | Morningglory plant response rating (morningglory; [6]): 0 | Plant response rating, Morningglory (morningglory; [7]): 7 | Sugarbeets plant response rating (sugar beet; [1]): 0 | Plant response rating, Sugarbeets (sugar beet; [3]): 0 | Sugarbeets plant response rating (sugar beet; [4]): 0 | Sugarbeets plant response rating (sugar beet; [5]): 0 | Sugarbeets plant response rating (0 to 10 scale) (sugar beet; Preemergence, Rate 250 g/ha): 0 | Sugarbeets plant response rating (sugar beet; [6]): 0 | Plant response rating, Sugarbeets (sugar beet; [7]): 0 | Giant foxtail plant response rating (giant foxtail; [1]): 0 | Giant foxtail plant response rating (giant foxtail; [2]): 0 | Plant response rating, Giant foxtail (giant foxtail; [3]): 3 | Giant foxtail plant response rating (giant foxtail; [4]): 0 | Giant foxtail plant response rating (giant foxtail; [5]): 0 | Giant foxtail plant response rating (0 to 10 scale) (giant foxtail; Preemergence, Rate 250 g/ha): 0 | Giant foxtail plant response rating (giant foxtail; [6]): 2 | Plant response rating, Giant foxtail (giant foxtail; [7]): 0 | Blackgrass plant response rating (blackgrass; [1]): 0 | Blackgrass plant response rating (blackgrass; [2]): 0 | Plant response rating, Blackgrass (blackgrass; [3]): 0 | Blackgrass plant response rating (blackgrass; [4]): 0 | Blackgrass plant response rating (blackgrass; [5]): 0 | Blackgrass plant response rating (0 to 10 scale) (blackgrass; Preemergence, Rate 250 g/ha): 0 | Blackgrass plant response rating (blackgrass; [6]): 0 | Plant response rating, Blackgrass (blackgrass; [7]): 0 | Nutsedge plant response rating (purple nutsedge; [2]): 0 | Plant response rating, Nutsedge (purple nutsedge; [3]): 0 | Nutsedge plant response rating (purple nutsedge; [4]): 0 | Nutsedge plant response rating (purple nutsedge; [5]): 0 | Nutsedge plant response rating (0 to 10 scale) (purple nutsedge; Preemergence, Rate 250 g/ha): 0 | Nutsedge plant response rating (purple nutsedge; [6]): 0 | Plant response rating, Nutsedge (purple nutsedge; [7]): 0 | Corn plant response rating (corn; [1]): 0 | Corn plant response rating (corn; [2]): 0 | Plant response rating, Corn (corn; [3]): 0 | Corn plant response rating (corn; [4]): 0 | Corn plant response rating (corn; [5]): 0 | Corn plant response rating (0 to 10 scale) (corn; Preemergence, Rate 250 g/ha): 0 | Corn plant response rating (corn; [6]): 0 | Plant response rating, Corn (corn; [7]): 0 | Soybean plant response rating (soybean; [1]): 2 | Plant response rating, Soybean (soybean; [3]): 3 | Soybean plant response rating (soybean; [4]): 0 | Soybean plant response rating (soybean; [5]): 0 | Soybean plant response rating (0 to 10 scale) (soybean; Preemergence, Rate 250 g/ha): 0 | Soybean plant response rating (soybean; [6]): 0 | Plant response rating, Soybean (soybean; [7]): 3 | B. signalgrass plant response rating (surinam grass; [1]): 0 | B. signalgrass plant response rating (surinam grass; [2]): 0 | Plant response rating, B. signalgrass (surinam grass; [3]): 0 | B. signalgrass plant response rating (surinam grass; [4]): 0 | B. signalgrass plant response rating (surinam grass; [5]): 0 | B. signalgrass plant response rating (0 to 10 scale, 0 is no effect, 10 is complete control) (surinam grass; Preemergence, Rate 250 g/ha): 0 | B. signalgrass plant response rating (surinam grass; [6]): 0 | Plant response rating, B. signalgrass (surinam grass; [7]): 0 | Crabgrass plant response rating (crabgrass; [1]): 0 | Crabgrass plant response rating (crabgrass; [2]): 0 | Plant response rating, Crabgrass (crabgrass; [3]): 3 | Crabgrass plant response rating (crabgrass; [4]): 0 | Crabgrass plant response rating (crabgrass; [5]): 0 | Crabgrass plant response rating (0 to 10 scale) (crabgrass; Preemergence, Rate 250 g/ha): 0 | Crabgrass plant response rating (crabgrass; [6]): 2 | Plant response rating, Crabgrass (crabgrass; [7]): 0 | Velvetleaf plant response rating (velvetleaf; [1]): 3 | Plant response rating, Velvetleaf (velvetleaf; [3]): 4 | Velvetleaf plant response rating (velvetleaf; [4]): 0 | Velvetleaf plant response rating (velvetleaf; [5]): 0 | Velvetleaf plant response rating (0 to 10 scale) (velvetleaf; Preemergence, Rate 250 g/ha): 0 | Velvetleaf plant response rating (velvetleaf; [6]): 0 | Plant response rating, Velvetleaf (velvetleaf; [7]): 4 | Wheat plant response rating (wheat; [1]): 0 | Plant response rating, Wheat (wheat; [3]): 0 | Wheat plant response rating (wheat; [4]): 0 | Wheat plant response rating (wheat; [5]): 0 | Wheat plant response rating (0 to 10 scale) (wheat; Preemergence, Rate 250 g/ha): 0 | Wheat plant response rating (wheat; [6]): 0 | Plant response rating, Wheat (wheat; [7]): 0 | Wild oats plant response rating (wild oat; [1]): 0 | Plant response rating, Wild oats (wild oat; [3]): 0 | Wild oats plant response rating (wild oat; [4]): 0 | Wild oats plant response rating (wild oat; [5]): 0 | Wild oats plant response rating (0 to 10 scale) (wild oat; Preemergence, Rate 250 g/ha): 0 | Wild oats plant response rating (wild oat; [6]): 0 | Plant response rating, Wild oats (wild oat; [7]): 0 | Redroot pigweed plant response rating (pigweed; [1]): 0 | Plant response rating, Redroot pigweed (pigweed; [3]): 6 | Redroot pigweed plant response rating (pigweed; [4]): 0 | Redroot pigweed plant response rating (pigweed; [5]): 0 | Redroot pigweed plant response rating (0 to 10 scale) (pigweed; Preemergence, Rate 250 g/ha): 0 | Redroot pigweed plant response rating (pigweed; [6]): 9 | Plant response rating, Redroot pigweed (pigweed; [7]): 6 | Rape plant response rating (rape; [1]): 0 | Rape plant response rating (rape; [2]): 0 | Plant response rating, Rape (rape; [3]): 0 | Rape plant response rating (rape; [4]): 0 | Rape plant response rating (rape; [5]): 0 | Rape plant response rating (0 to 10 scale) (rape; Preemergence, Rate 250 g/ha): 0 | Rape plant response rating (rape; [6]): 0 | Plant response rating, Rape (rape; [7]): 0 | Bedstraw plant response rating (bedstraw; [1]): 0 | Bedstraw plant response rating (bedstraw; [2]): 0 | Plant response rating, Bedstraw (bedstraw; [3]): 0 | Bedstraw plant response rating (bedstraw; [4]): 0 | Bedstraw plant response rating (bedstraw; [5]): 0 | Bedstraw plant response rating (0 to 10 scale) (bedstraw; Preemergence, Rate 250 g/ha): 0 | Bedstraw plant response rating (bedstraw; [6]): 0
